SMILES strings stand for the structures.

The first test deals with T1, human PDE4B1 (Homo sapiens, UniProt Q07343).
T1 construct: host or cells: Sf9 cells
T1 sequence (Q07343 whole entry): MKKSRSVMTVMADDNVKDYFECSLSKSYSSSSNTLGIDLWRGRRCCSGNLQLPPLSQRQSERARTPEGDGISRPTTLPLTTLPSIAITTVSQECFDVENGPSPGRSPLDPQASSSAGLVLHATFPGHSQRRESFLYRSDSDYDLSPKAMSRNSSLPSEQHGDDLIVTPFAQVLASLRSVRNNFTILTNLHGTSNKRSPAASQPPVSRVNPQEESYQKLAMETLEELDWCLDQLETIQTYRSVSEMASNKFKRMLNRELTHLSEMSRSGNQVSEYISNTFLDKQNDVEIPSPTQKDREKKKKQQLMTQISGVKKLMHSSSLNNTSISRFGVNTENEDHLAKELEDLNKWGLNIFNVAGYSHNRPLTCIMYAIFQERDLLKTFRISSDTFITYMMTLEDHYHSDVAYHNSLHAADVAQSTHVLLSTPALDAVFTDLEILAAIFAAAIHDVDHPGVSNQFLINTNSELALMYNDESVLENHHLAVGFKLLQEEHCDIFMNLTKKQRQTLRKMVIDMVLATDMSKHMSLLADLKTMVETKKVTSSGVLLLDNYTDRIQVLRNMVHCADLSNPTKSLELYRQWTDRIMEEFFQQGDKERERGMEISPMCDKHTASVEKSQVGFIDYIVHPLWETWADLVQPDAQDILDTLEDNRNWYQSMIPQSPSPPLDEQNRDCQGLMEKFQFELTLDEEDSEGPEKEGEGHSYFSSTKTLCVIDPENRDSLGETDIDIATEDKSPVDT
In words: cAMP HTRF assay to determine the activity of hPDE4B1. The settings on record: inhibition of PDE4B at a test concentration of 1 μM. Type of test: biochemical. The method, then: Biological Testing cAMP HTRF® Assay to Determine the Activity of hPDE4B1
The inhibiting effect of the compounds on the enzyme activity of human PDE4B1 was measured by the quantification of 5′-adenosine monophosphate (5′-AMP), which is formed from 3′,5′-cyclic adenosine monophosphate (cAMP). Human recombinant enzyme, expressed in Sf9 cells, and the HTRF (homogeneous time-resolved fluorescence) detection method were used in the assay.
The test compound or water (control) was mixed with the human recombinant PDE4B1 enzyme (4.8 U) in a buffer consisting of 44.4 mM tris-HCl, 5.28 mM MgCl2, 2.64 mM DTT and 0.044% Tween 20 (pH 7.8). After adding the cAMP enzyme substrate (final concentration 40 nM), the mixture was incubated for 30 minutes at room temperature. Then a fluorescence acceptor (Dye2 marked with cAMP), a fluorescence donor (anti-cAMP antibody marked with a europium cryptate) and the non-specific phosphodiesterase inhibitor IBMX (3-isobutyl-1-methylxanthine; final concentration 1 mM) were added. After 60 minutes the fluorescence transfer, which correlates with the amount of remaining cAMP, was measured with a microplate reader (Rubystar, BMG) at λex=337 nm, λem=620 nm and λem=665 nm. The enzyme activity was calculated from the quotient formed from the measured signal at 665 nm and that at 620 nm. The result was expressed as the percentage inhibition of enzyme activity of the control (without PDE4 inhibitor). The enzyme was omitted for measurement of the basal control. IC50 values (IC50=concentration causing a half-maximal inhibition of control specific activity) were derived from dose response measurements with eight different concentrations (n=2; N=1-3).
Literature: N. Saldou et al., Comparison of recombinant human PDE4 isoforms: interaction with substrate and inhibitors, Cell. Signal. Vol. 10, No. 6, 427-440, 1998
For the molecule `Cc1ccnc(-c2cnc(-n3cc([S+](C)[O-])c4ccc(C(=O)N5CCOCC5)cc43)nc2)c1` (racemic) [Example 142, (1-(5-(4-methylpyridin-2-yl)pyrimidin-2-yl)-3-(methylsulfinyl)-1H-indol-6-yl)(morpholino)methanone], the inhibition at 1 µM came out at 110%.

Take `Cc1cccc(-c2cnc(-n3cc([S+](C)[O-])c4ccc(C(=O)N5CCOCC5)cc43)nc2)c1` (single isomer, unassigned) [Example 154, (3-(Methylsulfinyl)-1-(5-(m-tolyl)pyrimidin-2-yl)-1H-indol-6-yl)(morpholino)methanone]: the inhibition at 1 µM amounted to 98%.

For `COc1ccc(F)c(-c2cnc(-n3cc([S+](C)[O-])c4ccc(C(=O)N5CCOCC5)cc43)nc2)c1` (single isomer, unassigned) [Example 160, (1-(5-(2-Fluoro-5-methoxyphenyl)pyrimidin-2-yl)-3-(methylsulfinyl)-1H-indol-6-yl)(morpholino)methanone], the inhibition at 1 µM amounted to 107%.

In the case of `C[S+]([O-])c1cn(-c2ncc(-c3ccccc3)cn2)c2cc(C(=O)N3CCOCC3)ccc12` (single isomer, unassigned) [Example 163, (3-(Methylsulfinyl)-1-(5-phenylpyrimidin-2-yl)-1H-indol-6-yl)(morpholino)methanone], the inhibition at 1 µM is 104%.

On to `C[S+]([O-])c1cn(-c2ncc(-c3ccccc3F)cn2)c2cc(C(=O)N3CCOCC3)ccc12` (single isomer, unassigned) [Example 165, (1-(5-(2-Fluorophenyl)pyrimidin-2-yl)-3-(methylsulfinyl)-1H-indol-6-yl)(morpholino)methanone], for which the inhibition at 1 µM stood at 105%.

As to `COc1ccc(F)c(-c2cnc(-n3cc([S+](C)[O-])c4ccc(C(=O)N5CCNC(=O)C5)cc43)nc2)c1` (single isomer, unassigned) [Example 213, 4-(1-(5-(2-Fluoro-5-methoxyphenyl)pyrimidin-2-yl)-3-(methylsulfinyl)-1H-indole-6-carbonyl)piperazin-2-one], the inhibition at 1 µM was determined as 106%.

Consider `Cc1cccc(-c2cnc(-n3cc([S+](C)[O-])c4ccc(C(=O)N5CCNC(=O)C5)cc43)nc2)c1` (single isomer, unassigned) [Example 215, 4-(3-(Methylsulfinyl)-1-(5-(m-tolyl)pyrimidin-2-yl)-1H-indole-6-carbonyl)piperazin-2-one], for which the inhibition at 1 µM came to 110%.

For `COc1cccc(-c2cnc(-n3cc([S+](C)[O-])c4ccc(C(=O)N5CCNC(=O)C5)cc43)nc2)c1` (single isomer, unassigned) [Example 217, 4-(1-(5-(3-Methoxyphenyl)pyrimidin-2-yl)-3-(methylsulfinyl)-1H-indole-6-carbonyl)piperazin-2-one], the inhibition at 1 µM amounted to 109%.

With `CC(O)c1cn(-c2ncc(-c3ccccc3)cn2)c2cc(C(=O)N3CCOCC3)ccc12` (single isomer, unassigned) [Example 254, (3-(1-Hydroxyethyl)-1-(5-phenylpyrimidin-2-yl)-1H-indol-6-yl)(morpholino)methanone], the inhibition at 1 µM is 95%.

Regarding `CC(O)c1cn(-c2ncc(-c3ccccc3)cn2)c2cc(C(=O)N3CCOCC3)ccc12` (single isomer, unassigned) [Example 255, (3-(1-Hydroxyethyl)-1-(5-phenylpyrimidin-2-yl)-1H-indol-6-yl)(morpholino)methanone], the Inhibition in % was found to be 95%.

Still in this test, the particulars now being: inhibition of PDE4B at a test concentration of 1 μM, 1 µM.
On to `Cc1cccc(-c2cnc(-n3cc([S+](C)[O-])c4ccc(C(=O)N5CCOCC5)cc43)nc2)c1` (single isomer, unassigned) [Example 155, (3-(Methylsulfinyl)-1-(5-(m-tolyl)pyrimidin-2-yl)-1H-indol-6-yl)(morpholino)methanone], for which the Inhibition in % is 97%.

Take `COc1cccc(-c2cnc(-n3cc([S+](C)[O-])c4ccc(C(=O)N5CCOCC5)cc43)nc2)c1` (single isomer, unassigned) [Example 157, (1-(5-(3-Methoxyphenyl)pyrimidin-2-yl)-3-(methylsulfinyl)-1H-indol-6-yl)(morpholino)methanone]: the Inhibition in % worked out at 81%.

Take `COc1cccc(-c2cnc(-n3cc([S+](C)[O-])c4ccc(C(=O)N5CCOCC5)cc43)nc2)c1` (single isomer, unassigned) [Example 158, (1-(5-(3-Methoxyphenyl)pyrimidin-2-yl)-3-(methylsulfinyl)-1H-indol-6-yl)(morpholino)methanone]: the Inhibition in % is recorded as 104%.

As for `COc1ccc(F)c(-c2cnc(-n3cc([S+](C)[O-])c4ccc(C(=O)N5CCOCC5)cc43)nc2)c1` (single isomer, unassigned) [Example 161, (1-(5-(2-Fluoro-5-methoxyphenyl)pyrimidin-2-yl)-3-(methylsulfinyl)-1H-indol-6-yl)(morpholino)methanone], the Inhibition in % was 109%.

Consider `C[S+]([O-])c1cn(-c2ncc(-c3ccccc3)cn2)c2cc(C(=O)N3CCOCC3)ccc12` (single isomer, unassigned) [Example 164, (3-(Methylsulfinyl)-1-(5-phenylpyrimidin-2-yl)-1H-indol-6-yl)(morpholino)methanone], for which the Inhibition in % is 92%.

With `C[S+]([O-])c1cn(-c2ncc(-c3ccccc3F)cn2)c2cc(C(=O)N3CCOCC3)ccc12` (single isomer, unassigned) [Example 166, (1-(5-(2-Fluorophenyl)pyrimidin-2-yl)-3-(methylsulfinyl)-1H-indol-6-yl)(morpholino)methanone], the Inhibition in % came to 93%.

Regarding `COc1ccc(F)c(-c2cnc(-n3cc([S+](C)[O-])c4ccc(C(=O)N5CCNC(=O)C5)cc43)nc2)c1` (single isomer, unassigned) [Example 214, 4-(1-(5-(2-Fluoro-5-methoxyphenyl)pyrimidin-2-yl)-3-(methylsulfinyl)-1H-indole-6-carbonyl)piperazin-2-one], the Inhibition in % is given as 92%.

As to `Cc1cccc(-c2cnc(-n3cc([S+](C)[O-])c4ccc(C(=O)N5CCNC(=O)C5)cc43)nc2)c1` (single isomer, unassigned) [Example 216, 4-(3-(Methylsulfinyl)-1-(5-(m-tolyl)pyrimidin-2-yl)-1H-indole-6-carbonyl)piperazin-2-one], the Inhibition in % is listed as 94%.

For `COc1cccc(-c2cnc(-n3cc([S+](C)[O-])c4ccc(C(=O)N5CCNC(=O)C5)cc43)nc2)c1` (single isomer, unassigned) [Example 218, 4-(1-(5-(3-Methoxyphenyl)pyrimidin-2-yl)-3-(methylsulfinyl)-1H-indole-6-carbonyl)piperazin-2-one], the Inhibition in % came out at 98%.

With `CC(O)c1cn(-c2ncc(-c3ccccc3F)cn2)c2cc(C(=O)N3CCOCC3)ccc12` (single isomer, unassigned) [Example 252, (1-(5-(2-Fluorophenyl)pyrimidin-2-yl)-3-(1-hydroxyethyl)-1H-indol-6-yl)(morpholino)methanone], the Inhibition in % is on record as 97%.

In the case of `CC(O)c1cn(-c2ncc(-c3ccccc3F)cn2)c2cc(C(=O)N3CCOCC3)ccc12` (single isomer, unassigned) [Example 253, (1-(5-(2-Fluorophenyl)pyrimidin-2-yl)-3-(1-hydroxyethyl)-1H-indol-6-yl)(morpholino)methanone], the Inhibition in % was determined as 120%.

Source of the values: US9315490B2, “2,5-substituted pyrimidines” (Grünenthal GmbH, priority 2014, dated 2016).
